From US20140127288A1, “LIPOSOME CONTAINING PYRROLOQUINOLINE QUINONE AND SUGAR” (MITSUBISHI GAS CHEMICAL COMPANY, INC., priority 2011, published 2014)

Tested on: Chinese hamster ovary cells (CHO-DHFR)
Assay: Proliferation study (WST assay)
Format: cell-based
Conditions: vs cells treated with culture medium alone; one day incubation
Protocol: Chinese hamster ovary cells (CHO-DHFR; obtained from Dainippon Sumitomo Pharma Co., Ltd.) was cultured in the culture medium, α-MEM+10% fetal calf serum, in an atmosphere of 5% CO2 at 37° C. A 96-well microplate (IWAKI & Co., Ltd.) was used and cells were added to each well at 5000 cells with 100 μl of the culture medium, and the microplate was incubated overnight. After removing the culture medium, a new culture medium containing the liposome composition prepared in Examples 1 to 4 and Comparative Examples 1 to 3 at a predetermined concentration was added to each well. After one day incubation, a test solution in a WST Assay Kit was reacted for 1 hour according to a procedure of the Kit (Dojindo Laboratories), and the absorbance of each well was measured at 450 nm. In WST Assay, the absorbance obtained is proportional to the number of live cells. The liposome compositions prepared in Examples 1 to 4 and Comparative Examples 1 to 3 and […] (for Comparative Example 4) were used as samples, and the samples were diluted by the culture medium and subjected to a test. The concentrations used in the test were 500, 250, 125, 62, 31, 16, 8, 4, 2, 1, 0.5, and 0 μM. In Comparative Example 2, the concentration of the liposome composition was used as the test concentration of the sample. The test was conducted for each sample twice and the average was calculated. […]

O=C(O)c1cc(C(=O)O)c2c(n1)C(=O)C(=O)c1cc(C(=O)O)[nH]c1-2 [Comparative Example 4, Pyrroloquinoline quinone disodium]
Concentration of growth inhibition (total cell number decreases by 10%): 500 µM
